pIC50: −log10 of the molar value.
Legend:
[1] = target: BRAF (Homo sapiens (Human), UniProt P15056); test: Z′-LYTE kinase inhibition assay (Invitrogen), BRAF; format: biochemical; details: 1 μM compound, Z′-LYTE method; read-out: % inhibition at 1 μM against BRAF
[2] = target: BRAF V600E (Homo sapiens (Human), UniProt P15056, V600E); test: Z′-LYTE kinase inhibition assay (Invitrogen), BRAF V600E; format: biochemical; details: Z′-LYTE method; for inhibition at 1 µM: 1 μM compound, read-out: % inhibition at 1 μM against BRAF V600E
In short: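 FRET-based Z′-LYTE peptide phosphorylation format in 50 mM HEPES pH 7.5, 0.01% BRIJ-35, 10 mM MgCl2, 1 mM EGTA with ATP. Kinase reaction 60 min at room temperature, then protease development step 60 min at room temperature before fluorescence read. IC50 from compound concentration versus percent inhibition.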

[3] = target: KDR (VEGFR2) (Homo sapiens (Human), UniProt P35968); test: Z′-LYTE kinase inhibition assay (Invitrogen), KDR; format: biochemical; details: Z′-LYTE method; for inhibition at 1 µM: 1 μM compound, read-out: % inhibition at 1 μM against KDR
In short: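 Z′-LYTE FRET assay: 10 μL reactions with 0.5–11.7 ng KDR and 2 μM Tyr 01 peptide in 50 mM HEPES pH 7.5, 10 mM MgCl2, 1 mM EGTA, 0.01% BRIJ-35, 1 h at room temperature. Development Reagent B (1:256) added for 60 min, fluorescence read; IC50 from concentration–inhibition curves.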

[4] = tested on: A375 cells; test: Inhibition of cancer cell growth, MTT assay, A375; format: cell-based; details: Homo sapiens, A-375, 72 h exposure
In short: (§1)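 IC50 derived from percent growth inhibition versus concentration, tested in triplicate. Growth inhibition came from MTT read at 570 nm after 72 h drug exposure, relative to viable cells at dosing. Cells (about 4000/well, RPMI 1640 + 10% FBS) adhered 24 h before treatment; final DMSO 1%.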

[5] = tested on: A549 cells; test: Inhibition of cancer cell growth, MTT assay, A549; format: cell-based; details: Homo sapiens, A549, 72 h exposure
In short: as §1

BRAF V600E, sequence (P15056 whole entry V600E): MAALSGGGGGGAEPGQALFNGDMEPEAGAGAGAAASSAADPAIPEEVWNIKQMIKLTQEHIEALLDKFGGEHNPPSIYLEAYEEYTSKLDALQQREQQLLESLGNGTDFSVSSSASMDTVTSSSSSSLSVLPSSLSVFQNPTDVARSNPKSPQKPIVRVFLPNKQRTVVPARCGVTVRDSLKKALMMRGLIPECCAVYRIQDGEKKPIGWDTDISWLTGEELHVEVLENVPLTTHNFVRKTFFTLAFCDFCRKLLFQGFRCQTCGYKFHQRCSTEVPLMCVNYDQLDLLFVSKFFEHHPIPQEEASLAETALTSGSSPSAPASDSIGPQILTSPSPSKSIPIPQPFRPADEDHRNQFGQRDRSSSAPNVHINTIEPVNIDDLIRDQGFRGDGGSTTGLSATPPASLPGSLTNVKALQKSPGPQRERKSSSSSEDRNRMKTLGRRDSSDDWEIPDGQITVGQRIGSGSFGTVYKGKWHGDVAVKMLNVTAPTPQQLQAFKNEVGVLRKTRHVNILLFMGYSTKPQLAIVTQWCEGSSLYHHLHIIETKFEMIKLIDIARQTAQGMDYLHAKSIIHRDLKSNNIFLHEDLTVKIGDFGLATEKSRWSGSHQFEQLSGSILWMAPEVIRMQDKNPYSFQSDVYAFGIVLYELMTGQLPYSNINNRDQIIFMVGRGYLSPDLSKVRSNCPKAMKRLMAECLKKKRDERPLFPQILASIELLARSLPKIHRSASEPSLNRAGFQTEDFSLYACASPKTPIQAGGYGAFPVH
KDR (VEGFR2), sequence (P35968 20-1356): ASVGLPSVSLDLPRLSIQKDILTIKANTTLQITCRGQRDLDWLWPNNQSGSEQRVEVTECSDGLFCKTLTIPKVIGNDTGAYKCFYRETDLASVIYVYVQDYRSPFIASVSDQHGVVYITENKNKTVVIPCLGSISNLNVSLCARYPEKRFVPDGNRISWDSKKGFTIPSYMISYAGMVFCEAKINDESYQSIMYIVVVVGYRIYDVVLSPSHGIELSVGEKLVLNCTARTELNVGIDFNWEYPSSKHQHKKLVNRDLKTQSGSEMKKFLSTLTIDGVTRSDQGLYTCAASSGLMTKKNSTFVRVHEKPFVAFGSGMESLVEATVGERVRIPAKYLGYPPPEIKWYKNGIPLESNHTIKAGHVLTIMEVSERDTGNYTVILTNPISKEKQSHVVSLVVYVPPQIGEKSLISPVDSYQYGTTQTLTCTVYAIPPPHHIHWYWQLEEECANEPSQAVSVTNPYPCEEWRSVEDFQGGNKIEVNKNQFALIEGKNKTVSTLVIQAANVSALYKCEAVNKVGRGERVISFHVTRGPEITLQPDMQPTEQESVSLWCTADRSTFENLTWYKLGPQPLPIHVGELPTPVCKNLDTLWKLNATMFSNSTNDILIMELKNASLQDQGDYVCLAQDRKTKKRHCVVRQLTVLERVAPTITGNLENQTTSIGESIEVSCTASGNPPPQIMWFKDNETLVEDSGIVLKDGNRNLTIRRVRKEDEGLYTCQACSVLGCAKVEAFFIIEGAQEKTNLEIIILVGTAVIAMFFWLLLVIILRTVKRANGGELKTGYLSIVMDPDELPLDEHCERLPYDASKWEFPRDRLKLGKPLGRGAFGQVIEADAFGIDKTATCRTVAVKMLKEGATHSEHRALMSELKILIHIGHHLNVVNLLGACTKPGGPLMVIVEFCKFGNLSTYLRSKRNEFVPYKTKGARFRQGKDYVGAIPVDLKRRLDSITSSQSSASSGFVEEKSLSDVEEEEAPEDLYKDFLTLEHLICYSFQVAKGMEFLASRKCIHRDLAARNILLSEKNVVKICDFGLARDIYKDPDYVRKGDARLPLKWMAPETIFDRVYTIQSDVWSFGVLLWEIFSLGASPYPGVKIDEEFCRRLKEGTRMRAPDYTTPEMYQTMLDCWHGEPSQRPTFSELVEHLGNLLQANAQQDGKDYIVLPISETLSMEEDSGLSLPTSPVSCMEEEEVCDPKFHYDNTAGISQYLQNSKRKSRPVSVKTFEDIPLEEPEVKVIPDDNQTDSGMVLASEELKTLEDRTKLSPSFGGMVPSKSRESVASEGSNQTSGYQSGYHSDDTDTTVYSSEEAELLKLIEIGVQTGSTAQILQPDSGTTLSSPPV
BRAF, sequence (P15056 whole entry): as the sequence (P15056 whole entry V600E) above, with E600V counted along it

| SMILES | inhibition at 1 µM [1] [%] | inhibition at 1 µM [2] [%] | pIC50 ([2]; read-out: IC50 against BRAF V600E) | inhibition at 1 µM [3] [%] | pIC50 ([3]; read-out: IC50 against KDR) | pIC50 [4] | pIC50 [5] |
| --- | --- | --- | --- | --- | --- | --- | --- |
| O=C(Nc1cccc(C(=O)c2ccc3ncc(-c4cccnc4)nc3c2)c1)Nc1ccc(Cl)c(C(F)(F)F)c1 [Compound C022, 1-(4-chloro-3-(trifluoromethyl)phenyl)-3-(3-(3-(pyridin-3-yl)quinoxaline-6-carbonyl)phenyl)urea] | 70 to 89 | > 89 | > 7.00 | > 89 | > 7.00 | 5.30 to 6.00 | < 5.30 |
| O=C(c1cccc(NC(=O)c2cc(C(F)(F)F)ccc2Cl)c1)c1ccc2nccnc2c1 [Compound C106, 2-chloro-N-(3-(quinoxaline-6-carbonyl)phenyl)-5-(trifluoromethyl)benzamide] | < 70 | 70 to 89 | – | < 70 | – | > 6.00 | < 5.30 |

From patent US10759766B2, “Certain chemical entities, compositions, and methods” (NeuPharma, Inc., priority 2011, dated 2020)
